According to PMC11258682, “Mechanoresponsive Protein Crystals for NADH Recycling in Multicycle Enzyme Reactions” (Journal of the American Chemical Society, 2024):

Target: Cry3Aa (Bacillus thuringiensis, UniProt P0A379)
Settings: solid crystals, non-specific electrostatic adsorption likely; no PEI

Sequence of Cry3Aa (P0A379 58-644 limits assumed): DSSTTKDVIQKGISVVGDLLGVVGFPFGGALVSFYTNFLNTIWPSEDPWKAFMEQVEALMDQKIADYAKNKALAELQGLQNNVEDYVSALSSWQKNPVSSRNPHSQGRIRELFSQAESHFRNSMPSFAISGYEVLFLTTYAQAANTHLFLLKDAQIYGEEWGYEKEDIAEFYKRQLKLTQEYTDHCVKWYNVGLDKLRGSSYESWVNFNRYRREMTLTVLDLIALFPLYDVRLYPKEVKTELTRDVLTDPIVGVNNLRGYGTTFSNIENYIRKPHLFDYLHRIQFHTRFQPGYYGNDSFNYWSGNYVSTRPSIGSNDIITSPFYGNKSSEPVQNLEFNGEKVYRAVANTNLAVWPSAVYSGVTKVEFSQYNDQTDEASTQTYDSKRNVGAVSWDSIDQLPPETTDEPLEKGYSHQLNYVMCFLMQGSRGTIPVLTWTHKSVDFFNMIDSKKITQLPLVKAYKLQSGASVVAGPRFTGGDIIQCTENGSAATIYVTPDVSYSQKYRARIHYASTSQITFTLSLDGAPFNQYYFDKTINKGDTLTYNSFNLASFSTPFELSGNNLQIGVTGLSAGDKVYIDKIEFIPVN

SMILES: NC(=O)C1=CN([C@@H]2O[C@H](COP(=O)(O)OP(=O)(O)OC[C@H]3O[C@@H](n4cnc5c(N)ncnc54)[C@H](O)[C@@H]3O)[C@@H](O)[C@H]2O)C=CC1 [NADH]
- amount of NADH bound: 6 ± 2 µmol/g
